Assay results published in US6498125B2, “Pyridine ketones useful as herbicides” (Syngenta Participations AG, priority 1998, dated 2002).

Experiments:
[1] = test system: Stellaria; test: Example B4: post-emergence action, 250 g/ha; type: in vivo; settings: 250 g of AS/ha, sprayed in the 2-3-leaf stage, 0.2% X77, 3 weeks, nine-level scale 1=complete damage, 9=no effect
Protocol: (§1) Monocotyledonous and dicotyledonous test plants are sown in pots in standard soil. In the 2-3- leaf stage of the test plants, the test substances are sprayed on (500 l of spray liquor/ha) as an aqueous suspension, prepared from a wettable powder WP10 according to the desired dosage (250 g of a.i./ha). 0.2% of X77 is added as wetting agent to the spray liquor. The test plants are then grown under optimum conditions in a greenhouse.
(§2) After a test period of 3 weeks, the test is evaluated with a nine4evel scale of ratings (1=complete damage, 9=no effect). Ratings of 1 to 4 (in particular 1 to 3) mean good to very good herbicidal action, 7-9 mean good tolerance.

[2] = test system: Abutilon; test: Example B4: post-emergence action, 250 g/ha; type: in vivo; settings: 250 g of AS/ha, sprayed in the 2-3-leaf stage, 0.2% X77, 3 weeks, nine-level scale 1=complete damage, 9=no effect
Protocol: as §1, §2

[3] = test system: Sida; test: Example B4: post-emergence action, 250 g/ha; type: in vivo; settings: 250 g of AS/ha, sprayed in the 2-3-leaf stage, 0.2% X77, 3 weeks, nine-level scale 1=complete damage, 9=no effect
Protocol: as §1, §2

[4] = test system: Kochia; test: Example B4: post-emergence action, 250 g/ha; type: in vivo; settings: 250 g of AS/ha, sprayed in the 2-3-leaf stage, 0.2% X77, 3 weeks, nine-level scale 1=complete damage, 9=no effect
Protocol: as §1, §2

[5] = test system: Chenopodium; test: Example B4: post-emergence action, 250 g/ha; type: in vivo; settings: 250 g of AS/ha, sprayed in the 2-3-leaf stage, 0.2% X77, 3 weeks, nine-level scale 1=complete damage, 9=no effect
Protocol: as §1, §2

[6] = test system: Amaranthus; test: Example B4: post-emergence action, 250 g/ha; type: in vivo; settings: 250 g of AS/ha, sprayed in the 2-3-leaf stage, 0.2% X77, 3 weeks, nine-level scale 1=complete damage, 9=no effect
Protocol: as §1, §2

[7] = test system: Monocotyledonous and dicotyledonous test plants; test: Example B1: pre-emergence herbicidal action, 2 kg of AS/ha; type: in vivo; settings: 3 weeks, scale 1-9; for pre-emergence action rating, Avena: test plant Avena; for pre-emergence action rating, Cyperus: test plant Cyperus; for pre-emergence action rating, Setaria: test plant Setaria; for pre-emergence action rating, Sinapis: test plant Sinapis; for pre-emergence action rating, Solanum: test plant Solanum; for pre-emergence action rating, Stellaria: test plant Stellaria
Protocol: Monocotyledonous and dicotyledonous test plants are sown in standard soil in plastic pots. Immediately after sowing, the test substances are sprayed on (500 l of water/ha) as an aqueous suspension (prepared from a 25% wettable powder (Example F3, b) according to WO 97/34485) or emulsion (prepared from a 25% emulsion concentrate (Example F1, c)), corresponding to a dosage of 2 kg of AS/ha. The test plants are then grown under optimum conditions in a greenhouse. After a test period of 3 weeks, the test is evaluated with a nine-level scale of ratings (1=complete damage, 9=no effect). Ratings of 1 to 4 (in particular 1 to 3) mean good to very good herbicidal action.

[8] = test system: Monocotyledonous and dicotyledonous test plants; test: Example B2: post-emergence herbicidal action, 2 kg of AS/ha; type: in vivo; design: key: 1 = complete damage, 9 = no effect; settings: 4- to 6-leaf stage, about 18 days, scale 1-9; for post-emergence action rating, Avena: test plant Avena; for post-emergence action rating, Setaria: test plant Setaria; for post-emergence action rating, Sinapis: test plant Sinapis; for post-emergence action rating, Solanum: test plant Solanum; for post-emergence action rating, Stellaria: test plant Stellaria
Protocol: Monocotyledonous and dicotyledonous test plants are grown in plastic pots with standard soil in a greenhouse and, in the 4- to 6-leaf stage, are sprayed with an aqueous suspension of the test substances of the formula 1, prepared from a 25% wettable powder (Example F3, b) according to WO 97134485) or with an emulsion of the test substances of the formula I, prepared from a 25% emulsion concentrate (Example F1, c) according to WO 97/34485), corresponding to a dosage of 2 kg of AS/ha (500 l of water/ha). The test plants are then grown further under optimum conditions in a greenhouse. After a test period of about 18 days, the test is evaluated with a nine-level scale of rating (1=complete damage, 9=no effect). Ratings of 1 to 4 (in particular 1 to 3) mean good to very good herbicidal action. In this test, the compounds of the formula I show strong herbicidal action.

Structure (SMILES): C#CCOc1ccc(C(=O)C2=C(O)C3CCC(C3)C2=O)c(C(F)(F)F)n1 (centres unmarked) [Compound 1.351]
- Post-emergence action: Stellaria (rating) [1]: 3
- Post-emergence action: Abutilon (rating) [2]: 5
- Post-emergence action: Sida (rating) [3]: 3
- Post-emergence action: Kochia (rating) [4]: 3
- Post-emergence action: Chenopodium (rating) [5]: 3
- Post-emergence action: Amaranthus (rating) [6]: 2

Structure (SMILES): Cc1ccc(C(=O)C2=C(O)C3CCC(C3)C2=O)c(C(F)(F)F)n1 (centres unmarked) [Compound 1.361]
- Post-emergence action: Stellaria (rating) [1]: 3
- Post-emergence action: Abutilon (rating) [2]: 2
- Post-emergence action: Sida (rating) [3]: 2
- Post-emergence action: Kochia (rating) [4]: 2
- Post-emergence action: Chenopodium (rating) [5]: 2
- Post-emergence action: Amaranthus (rating) [6]: 2

Structure (SMILES): Cc1nc(C(F)(F)F)ccc1C(=O)C1=C(Cl)C2CCC(C2)C1=O (centres unmarked) [Compound 1.398, 4-chloro-3-(2-methyl-6-trifluoromethyl-pyridine-3-carbonyl)bicyclo[3.2.1]oct-3-en-2-one]
- pre-emergence action rating, Avena [7]: 2
- pre-emergence action rating, Cyperus [7]: 1
- pre-emergence action rating, Setaria [7]: 1
- pre-emergence action rating, Sinapis [7]: 1
- pre-emergence action rating, Solanum [7]: 1
- pre-emergence action rating, Stellaria [7]: 1
- melting point: 137 to 138 °C
- post-emergence action rating, Avena [8]: 2
- post-emergence action rating, Setaria [8]: 2
- post-emergence action rating, Sinapis [8]: 1
- post-emergence action rating, Solanum [8]: 2
- post-emergence action rating, Stellaria [8]: 2

Structure (SMILES): Cc1nc(C(F)(F)F)ccc1C(=O)C1=C(N)C2CCC(C2)C1=O (centres unmarked) [Compound 1.399, 4-amino-3-(2-methyl-6-trifluoromethylpyridine-3-carbonyl)bicyclo[3.2.1]oct-3en-2-one]
- melting point: 262 to 263 °C

Structure (SMILES): Cc1nc(C(F)(F)F)ccc1C(=O)C1=C(Sc2ccc(Cl)cc2)C2CCC(C2)C1=O (centres unmarked) [Compound 1.412, 4-(4-chlorophenylsulfanyl)-3-(2-methyl-6-trifluoromethylpyridine-3-carbonyl)bicyclo[3.2.1]oct-3-en-2-one]
- melting point: 130 to 131 °C

Structure (SMILES): Cc1nc(C(F)(F)F)ccc1C(=O)C1=C(S(=O)(=O)c2ccc(Cl)cc2)C2CCC(C2)C1=O (centres unmarked) [Compound 1.414, 4-(4-chlorobenzenesulfonyl)-3-(2-methyl-6-trifluoromethylpyridine-3-carbonyl)bicyclo[3.2.1]oct-3-en-2-one]
- melting point: 166 to 167 °C

Structure (SMILES): CSc1nc(C(=O)C2=C(O)C3CCC(C3)C2=O)ccc1C(F)(F)F (centres unmarked) [Compound 2.03]
- melting point: 107 to 110 °C

Structure (SMILES): COc1nc(C(=O)C2=C(O)C3CCC(C3)C2=O)ccc1C(F)(F)F (centres unmarked) [Compound 2.038]
- melting point: 111 to 113 °C

Structure (SMILES): O=C(C1=C(O)C2CCC(C2)C1=O)c1ncc(C(F)(F)F)cc1Cl (centres unmarked) [Compound 2.044]
- melting point: 105 to 106 °C

Structure (SMILES): O=C(C1=C(O)C2CCC(C2)C1=O)c1ccnc(C(F)(F)F)c1 (centres unmarked) [Compound 3.001]
- melting point: 95 to 97 °C

Structure (SMILES): CSc1nccc(C(=O)C2=C(O)C3CCC(C3)C2=O)c1C#N (centres unmarked) [Compound 3.055]
- melting point: 108 to 110 °C

Structure (SMILES): Cc1nc(C(F)(F)F)ccc1C(=O)C1=C(O)C(C)(C)ON(C)C1=O [Compound 4.009]
- pre-emergence action rating, Avena [7]: 1
- pre-emergence action rating, Cyperus [7]: 2
- pre-emergence action rating, Setaria [7]: 1
- pre-emergence action rating, Sinapis [7]: 2
- pre-emergence action rating, Solanum [7]: 1
- pre-emergence action rating, Stellaria [7]: 3
- post-emergence action rating, Avena [8]: 1
- post-emergence action rating, Setaria [8]: 1
- post-emergence action rating, Sinapis [8]: 1
- post-emergence action rating, Solanum [8]: 1
- post-emergence action rating, Stellaria [8]: 1

Structure (SMILES): COCc1nc(C(F)(F)F)ccc1C(=O)C1=C(O)C(C)(C)ON(C)C1=O [Compound 4.021]
- pre-emergence action rating, Avena [7]: 2
- pre-emergence action rating, Cyperus [7]: 1
- pre-emergence action rating, Setaria [7]: 2
- pre-emergence action rating, Sinapis [7]: 2
- pre-emergence action rating, Solanum [7]: 1
- pre-emergence action rating, Stellaria [7]: 2
- post-emergence action rating, Avena [8]: 2
- post-emergence action rating, Setaria [8]: 2
- post-emergence action rating, Sinapis [8]: 1
- post-emergence action rating, Solanum [8]: 1
- post-emergence action rating, Stellaria [8]: 2

Structure (SMILES): Cc1nc(C(F)(F)Cl)ccc1C(=O)C1=C(O)C(C)(C)ON(C)C1=O [Compound 4.124]
- pre-emergence action rating, Avena [7]: 2
- pre-emergence action rating, Cyperus [7]: 1
- pre-emergence action rating, Setaria [7]: 2
- pre-emergence action rating, Sinapis [7]: 2
- pre-emergence action rating, Solanum [7]: 1
- pre-emergence action rating, Stellaria [7]: 2
- post-emergence action rating, Avena [8]: 2
- post-emergence action rating, Setaria [8]: 2
- post-emergence action rating, Sinapis [8]: 1
- post-emergence action rating, Solanum [8]: 1
- post-emergence action rating, Stellaria [8]: 2

Structure (SMILES): CC1=CC(C)(C)C(O)=C(C(=O)c2ccc(C(F)(F)F)nc2C)C1=O [Compound 5.008]
- pre-emergence action rating, Avena [7]: 2
- pre-emergence action rating, Cyperus [7]: 1
- pre-emergence action rating, Setaria [7]: 1
- pre-emergence action rating, Sinapis [7]: 2
- pre-emergence action rating, Solanum [7]: 1
- pre-emergence action rating, Stellaria [7]: 2
- post-emergence action rating, Avena [8]: 2
- post-emergence action rating, Setaria [8]: 3
- post-emergence action rating, Sinapis [8]: 1
- post-emergence action rating, Solanum [8]: 1
- post-emergence action rating, Stellaria [8]: 2

Structure (SMILES): Cc1nc(C(F)(F)F)ccc1C(=O)C1=C(O)C(C)(C)C=C([S+](C)[O-])C1=O (centres unmarked) [Compound 5.083]
- melting point: 161 to 162 °C

Structure (SMILES): Cc1nc(C(F)(F)F)ccc1C(=O)C1=C(O)C(C)(C)C=C(S(C)(=O)=O)C1=O [Compound 5.084]
- melting point: 215 to 216 °C

Structure (SMILES): CCC(=O)NC1CC(=O)C(C(=O)c2ccc(C(F)(F)F)nc2C)=C(O)C1 (centres unmarked) [Compound 6.006]
- melting point: 176 to 177 °C
- post-emergence action rating, Avena [8]: 2
- post-emergence action rating, Setaria [8]: 5
- post-emergence action rating, Sinapis [8]: 2
- post-emergence action rating, Solanum [8]: 2
- post-emergence action rating, Stellaria [8]: 2

Structure (SMILES): Cc1nc(C(F)(F)F)ccc1C(=O)C1=C(O)CC(NC(=O)C(C)C)CC1=O (centres unmarked) [Compound 6.041]
- melting point: 186 to 187 °C

Structure (SMILES): Cc1nc(C(F)(F)F)ccc1C(=O)C1=C(O)CC(NC(=O)Nc2ccccc2)CC1=O (centres unmarked) [Compound 6.076]
- melting point: 195 to 196 °C

Structure (SMILES): Cc1nc(C(F)(F)F)ccc1C(=O)C1=C(O)CC(NC(=O)NC(C)(C)C)CC1=O (centres unmarked) [Compound 6.111]
- melting point: 163 to 164 °C

Structure (SMILES): Cc1nc(C(F)(F)F)ccc1C(=O)c1c([S+](C)[O-])noc1C1CC1 (centres unmarked) [Compound 8.009, (5-cyclopropyl-3-methylsulfinylisoxazol-4-yl)-(2-methyl-6-trifluoromethylpyridin-3-yl)methanone]
- melting point: 96 to 97 °C

Structure (SMILES): Cc1nc(C(F)(F)F)ccc1-c1onc([S+](C)[O-])c1C(=O)C1CC1 (centres unmarked) [Compound 9.009, cyclopropyl-[3-methanesulfinyl-5-(2-methyl-6-trifluoromethylpyridin-3yl)isoxazol4-yl]methanone]
- melting point: 112 to 113 °C
